The values that follow come from patent US20120129712A1, “ANTIBODIES DIRECTED TO TRA ANTIGENS, AND METHODS OF PRODUCTION, SCREENING AND ANALYSIS OF SAID ANTIBODIES, AS WELL AS METHODS OF ANALYSIS OF STEM CELLS AND CANCER CELL” (GLYKOS FINLAND OY, priority 2009, published 2012).

“Also recorded” adds a separate entry of the source.

The subject of experiment [1] is Tra-1-81 antibody. Kind of experiment: Glycan microarray analysis (Consortium for Functional Glycomics printed array v3.2), binding of Tra-1-81. More on the design: RFU (glycan binding signal of Tra-1-81): dose or concentration left out as unconfirmed. Particulars: for RFU (glycan binding signal of Tra-1-81): Tra-1-81 (Chemicon MAB4381), average RFU of 6 replicates after removal of highest and lowest values; for binding of Tra-1-81 to the glycan, in words: glycan microarray. How it is done: (§1) Tra-1-81 and Tra-1-60 antibodies were from Chemicon (MAB4381 and MAB4361, respectively).
(§2) Glycan microarray analysis was carried out by the Consortium for Functional Glycomics. Glycan microarrays were printed as described (Blixt 2004). Version 3.2 of the human printed glycan array was used for analysis. Binding analysis was performed at […] of antibody. Data are reported as average RFU of 6 replicates after removal of highest and lowest values.

Experiment [2] concerns Tra-1-60 antibody. Kind of experiment: Glycan microarray analysis (Consortium for Functional Glycomics printed array v3.2), binding of Tra-1-60. How it is done: as §1, §2

With “Galb1-3GlcNacb1-3(Galb1-3GlcNacb1-3Galb1-4GlcNacb1-6)Galb1-4Glcb-Sp0 [Chart # 379]”, in experiment [1], the “RFU (glycan binding signal of Tra-1-81)” value came to 147 RFU and the “binding of Tra-1-81 to the glycan, in words” value is “specifically bound”.
Turning to “Galb1-3GlcNAcb1-3Galb1-4Glcb-Sp10 [Chart # 131]”, the “binding of Tra-1-81 to the glycan, in words” value in experiment [1] is on record as “weakly bound”. The “binding of Tra-1-60 to the glycan, in words” value in experiment [2] is “very weak or non-essential binding”.
As to Lewis a, the “binding of Tra-1-81 to the glycan, in words” value in experiment [1] is on record as “weakly bound”.
Take “Galb1-3GlcNAcb1-3Galb1-4GlcNAcb-Sp0 [Chart # 130]”: the “RFU (glycan binding signal of Tra-1-81)” value in experiment [1] is reported as 721 RFU. In addition, the “binding of Tra-1-81 to the glycan, in words” value in experiment [1] (listed as Galβ1-3GlcNAcβ1-3Galβ1-4GlcNAc) is listed as “binding; also recorded: specifically bound”. For the same substance, the “binding of Tra-1-60 to the glycan, in words” value in experiment [2] was “exclusively bound”.
